# Test results reported in US8338335B2, “Synergistic herbicidal composition containing fluroxypyr and penoxsulam, halosulfuron-methyl, imazamox or imazethapyr” (Dow Agrosciences, LLC, priority 2009, dated 2012).
# “And” between values parts separate entries of the source, which are not always exact repeats. Identical values can stand only once.
# Tests used:
# [1] = tested on: Echinochloa crus-galli (ECHCG); barnyardgrass; experiment: Postemergence herbicidal activity of mixtures in the greenhouse, ECHCG; assay type: in vivo
# Method: (§1) Seeds of the desired test plant species were planted in 80% mineral soil/20% grit planting mixture, which typically has a pH of 7.2 and an organic matter content of about 2.9 percent, in plastic pots with a surface area of 128 square centimeters (cm^2). The growing medium was steam sterilized. The plants were grown for 7-19 days in a greenhouse with an approximate 14-hour (h) photoperiod which was maintained at about 29° C. during the day and 26° C. during the night. Nutrients and water were added on a regular basis and supplemental lighting was provided with overhead metal halide 1000-Watt lamps as necessary. The plants were treated with postemergence foliar applications when they reached the third to fourth true leaf stage. All treatments were applied using a randomized complete block trial design, with 4 replications per treatment.
# (§2) Treatments consisted of the compounds as listed in Tables 1, 3, 5 and 6, each compound applied alone and in combination. Formulated amounts of penoxsulam, halosulfuron-methyl, imazamox and fluoroxypyr-meptyl ester, were placed in 60 milliliter (mL) glass vials and dissolved in a volume of 60 mL of a water solution containing Agri-dex crop oil concentrate in a 1% volume per volume (v/v) ratio. Compound requirements are based upon a 12 mL application volume at a rate of 187 liters per hectare (L/ha). Spray solutions of the mixtures were prepared by adding the stock solutions to the appropriate amount of dilution solution to form 12 mL spray solution with active ingredients in single and two way combinations. Formulated compounds were applied to the plant material with an overhead Mandel track sprayer equipped with 8002E nozzles calibrated to deliver 187 L/ha at a spray height of 18 inches (43 centimeters (cm)) above average plant canopy.
# (§3) The treated plants and control plants were placed in a greenhouse as described above and watered by sub-irrigation to prevent wash-off of the test compounds. Treatments were rated at 7 to 21 days after application (DAA) as compared to the untreated control plants. Visual weed control was scored on a scale of 0 to 100 percent where 0 corresponds to no injury and 100 corresponds to complete kill.
# (§4) Colby's equation was used to determine the herbicidal effects expected from the mixtures (Colby, S. R. Calculation of the synergistic and antagonistic response of herbicide combinations. Weeds 1967, 15, 20-22).
# (§5) The following equation was used to calculate the expected activity of mixtures containing two active ingredients, A and B: Expected=A+B−(A×B/100)
# [2] = tested on: Caperonia palustris, CNPPA; Texasweed; experiment: Postemergence herbicidal activity of mixtures in the field, CNPPA; assay type: in vivo
# Method: (§6) Field trials were conducted in rice and turf using standard herbicide small plot research methodology. Plots varied from 3×3 meter (m) to 3×10 m (width×length) with 4 replicates per treatment. The rice crop was grown using normal cultural practices for fertilization, seeding, watering, flooding and maintenance to ensure good growth of the crop and the weeds. The turf crop was a permanent established crop of centipedegrass that was grown and maintained under normal cultural practices for fertilization, watering, mowing and disease maintenance to ensure good growth of the crop and the weeds.
# (§7) All treatments in the field trials were applied using a carbon dioxide (CO2) backpack sprayer calibrated to apply 187 L/ha spray volume. Commercially available products of penoxsulam and fluoroxypyr-meptyl were mixed in water at appropriately formulated product rates to achieve the desired rates based on a unit area of application (hectare) to achieve the desired rates as shown. Treatments were rated at 7 to 33 days after application as compared to the untreated control plants. Visual weed control was scored on a scale of 0 to 100 percent where 0 corresponds to no injury and 100 corresponds to complete kill.
# as §4, §5
# [3] = tested on: Plantago lanceolata, PLALA; narrow-leaved plantain; experiment: Postemergence herbicidal activity of mixtures in the field, PLALA; assay type: in vivo
# Method: as §6
# as §7, with “kill. […]” for “kill.”
# [4] = tested on: Scirpus juncoides (SCPJU); Japanese bulrush; experiment: Postemergence herbicidal activity of mixtures in the greenhouse, SCPJU; assay type: in vivo
# Method: as §1
# Treatments consisted of the compounds as listed in Tables 1, 3, 5 and 6, each compound applied alone and in combination. […]
# (§8) The treated plants and control plants were placed in a greenhouse as described above and watered by sub-irrigation to prevent wash-off of the test compounds. […] Visual weed control was scored on a scale of 0 to 100 percent where 0 corresponds to no injury and 100 corresponds to complete kill. […]
# Centipedegrass (ERLOP) = experiment: Crop injury (safening) in the field, centipedegrass; assay type: in vivo, Eremochloa ophiuroides
# Method: as §6
# as §7, with “kill. […]” for “kill.”
# [5] = tested on: Sesbania exaltata, SEBEX; Hemp sesbania; experiment: Postemergence herbicidal activity of mixtures in the field, SEBEX; assay type: in vivo
# Method: as §6
# as §7, with “kill. […]” for “kill.”
# [6] = tested on: Leptochloa spp, LEFSS; sprangletop; experiment: Postemergence herbicidal activity of mixtures in the field, LEFSS; assay type: in vivo
# Method: as §6
# All treatments in the field trials were applied using a carbon dioxide (CO2) backpack sprayer calibrated to apply 187 L/ha spray volume. […] Treatments were rated at 7 to 33 days after application as compared to the untreated control plants. Visual weed control was scored on a scale of 0 to 100 percent where 0 corresponds to no injury and 100 corresponds to complete kill.
# as §4, §5
# [7] = tested on: Panicum dichotomiflorum, PANDI; fall panicum; experiment: Postemergence herbicidal activity of mixtures in the field, PANDI; assay type: in vivo
# Method: as §6
# as §7, with “kill. […]” for “kill.”
# [8] = tested on: Brachiaria platyphylla (BRAPP); broadleaf signalgrass; experiment: Postemergence herbicidal activity of mixtures in the greenhouse, BRAPP; assay type: in vivo; details: 21 DAA
# Method: as §1, §2, §3, §4, §5
# [9] = tested on: Cyperus esculentus (CYPES); yellow nutsedge; experiment: Postemergence herbicidal activity of mixtures in the greenhouse, CYPES; assay type: in vivo; details: 21 DAA
# Method: as §1, §2, §3, §4, §5
# Sunflower (HELAN) = experiment: Crop injury (safening) in the field, sunflower; assay type: in vivo, Helianthus annuus; details: Fluroxypyr-meptyl 100 g ae/ha alone
# [10] = tested on: Leptochloa chinensis (LEFCH); Chinese sprangletop; experiment: Postemergence herbicidal activity of mixtures in the greenhouse, LEFCH; assay type: in vivo; details: 21 DAA
# Method: as §1, §2, §8
# [11] = Fluroxypyr-meptyl 200 g ae/ha alone
# [12] = Fluroxypyr-meptyl 290 g ae/ha alone
# [13] = Fluroxypyr-meptyl 97 g ae/ha alone
# [14] = Halosulfuron-methyl 4.4 g ai/ha alone
# [15] = Halosulfuron-methyl 18 g ai/ha alone
smiles,measurement,setting,value
"COc1cnc(OC)n2nc(NS(=O)(=O)c3c(OCC(F)F)cccc3C(F)(F)F)nc12 [Penoxsulam, 2-(2,2-difluoroethoxy)-N-(5,8-dimethoxy-[1,2,4]triazolo[1,5-c]pyrimidin-2-yl)-6-(trifluoromethyl)benzenesulfonamide]",% Control ECHCG Ob,[1]; Penoxsulam 15 g ai/ha alone,84% and 78% and 62%
same,% Control CNPPA Ob,[2]; Penoxsulam 35 g ai/ha alone,67%
same,% Control PLALA Ob,[3]; Penoxsulam 15 g ai/ha alone,13%
same,% Control SCPJU Ob,[4]; Penoxsulam 10 g ai/ha alone,2%
same,% Injury ERLOP Ob,Centipedegrass (ERLOP); in vivo,15%
same,% Control SEBEX Ob,[5]; Penoxsulam 22 g ai/ha alone,76%
"CCc1cnc(C2=NC(C)(C(C)C)C(=O)N2)c(C(=O)O)c1 (centres unmarked) [Imazethapyr, 2-[4,5-dihydro-4-methyl-4-(1-methylethyl)-5-oxo-1H-imidazol-2-yl]-5-ethyl-3-pyridinecarboxylic acid]",% Control LEFSS Ob,[6]; Imazethapyr 70 g ai/ha alone,28%
same,% Control PANDI Ob,[7]; Imazethapyr 70 g ai/ha alone,40%
"COCc1cnc(C2=NC(C)(C(C)C)C(=O)N2)c(C(=O)O)c1 (centres unmarked) [Imazamox, 2-[4,5-dihydro-4-methyl-4-(1-methylethyl)-5-oxo-1H-imidazol-2-yl]-5-(methoxymethyl)-3-pyridinecarboxylic acid]",% Control BRAPP Ob,[8]; Imazamox 4.4 g ai/ha alone,3%
same,% Control BRAPP Ob,[8]; Imazamox 8.8 g ai/ha alone,46%
same,% Control CYPES Ob,[9]; Imazamox 8.8 g ai/ha alone,8%
same,% Control CYPES Ob,[9]; Imazamox 18 g ai/ha alone,42%
same,% Control ECHCG Ob,"[1]; Imazamox 4.4 g ai/ha alone, 21 DAA",1.3%
same,% Control ECHCG Ob,"[1]; Imazamox 8.8 g ai/ha alone, 21 DAA",29%
same,% Control ECHCG Ob,"[1]; Imazamox 18 g ai/ha alone, 21 DAA",85%
"CCCCCCC(C)OC(=O)COc1nc(F)c(Cl)c(N)c1Cl (centres unmarked) [Fluroxypyr-meptyl, fluoroxypyr-meptyl ester]",% Control BRAPP Ob,[8]; Fluroxypyr-meptyl 50 g ae/ha alone,10%
same,% Control BRAPP Ob,[8]; Fluroxypyr-meptyl 100 g ae/ha alone,23%
same,% Control BRAPP Ob,[8]; [11],20%
same,% Injury HELAN Ob,Sunflower (HELAN),31% and 34%
same,% Control CYPES Ob,"[9]; Fluroxypyr-meptyl 50 g ae/ha alone, Table 5",1%
same,% Control CYPES Ob,"[9]; Fluroxypyr-meptyl 100 g ae/ha alone, Table 5",3%
same,% Control CYPES Ob,"[9]; Fluroxypyr-meptyl 100 g ae/ha alone, Table 6",10%
same,% Control CYPES Ob,"[9]; Fluroxypyr-meptyl 200 g ae/ha alone, Table 5",8%
same,% Control CYPES Ob,"[9]; Fluroxypyr-meptyl 200 g ae/ha alone, Table 6",9%
same,% Control LEFCH Ob,[10]; [11],15%
same,% Control LEFSS Ob,[6]; [12],0%
same,% Control ECHCG Ob,"[1]; Fluroxypyr-meptyl 50 g ae/ha alone, 21 DAA, Table 5",6%
same,% Control ECHCG Ob,"[1]; Fluroxypyr-meptyl 50 g ae/ha alone, 21 DAA, Table 6",1.3%
same,% Control ECHCG Ob,"[1]; Fluroxypyr-meptyl 100 g ae/ha alone, 21 DAA, Table 5",2%
same,% Control ECHCG Ob,"[1]; Fluroxypyr-meptyl 100 g ae/ha alone, 21 DAA, Table 6",4%
same,% Control ECHCG Ob,"[1]; Fluroxypyr-meptyl 200 g ae/ha alone, 21 DAA, Table 5",11%
same,% Control ECHCG Ob,"[1]; Fluroxypyr-meptyl 200 g ae/ha alone, 21 DAA, Table 6",6%
same,% Control ECHCG Ob,"[1]; Fluroxypyr-meptyl 340 g ae/ha alone, Table 1",0%
same,% Control CNPPA Ob,[2]; [13],45%
same,% Control CNPPA Ob,[2]; [12],60%
same,% Control PANDI Ob,[7]; [12],0%
same,% Control PLALA Ob,[3]; Fluroxypyr-meptyl 140 g ae/ha alone,0%
same,% Control SCPJU Ob,[4]; Fluroxypyr-meptyl 70 g ae/ha alone,60%
same,% Injury ERLOP Ob,"Centipedegrass (ERLOP); Fluroxypyr-meptyl 210 g ae/ha alone, field",6%
same,% Control SEBEX Ob,[5]; [13],57%
"COC(=O)c1c(Cl)nn(C)c1S(=O)(=O)NC(=O)Nc1nc(OC)cc(OC)n1 [Halosulfuron-methyl, methyl 3-chloro-5-[[[[(4,6-dimethoxy-2-pyrimidinyl)amino]carbonyl]amino]sulfonyl]-1-methyl-1H-pyrazole-4-carboxylate]",% Control CYPES Ob,[9]; [14],68%
same,% Control CYPES Ob,[9]; Halosulfuron-methyl 8.8 g ai/ha alone,73%
same,% Control CYPES Ob,[9]; [15],78%
same,% Control LEFCH Ob,[10]; [14],2%
same,% Control LEFCH Ob,[10]; [15],8%
same,% Control ECHCG Ob,"[1]; Halosulfuron-methyl 8.8 g ai/ha alone, 21 DAA",3%
same,% Control ECHCG Ob,"[1]; Halosulfuron-methyl 18 g ai/ha alone, 21 DAA",6%
